Laboratory results from patent US20230183224A1, “BEZOXAZINE DERIVATIVES USEFUL AS MONOACYLGLYCEROL LIPASE INHIBITORS” (Hoffmann-La Roche Inc., priority 2017, published 2023).

Target: T1, MAGL (recombinant wild-type) (Homo sapiens, UniProt Q99685)
T1 sequence (Q99685 1-303): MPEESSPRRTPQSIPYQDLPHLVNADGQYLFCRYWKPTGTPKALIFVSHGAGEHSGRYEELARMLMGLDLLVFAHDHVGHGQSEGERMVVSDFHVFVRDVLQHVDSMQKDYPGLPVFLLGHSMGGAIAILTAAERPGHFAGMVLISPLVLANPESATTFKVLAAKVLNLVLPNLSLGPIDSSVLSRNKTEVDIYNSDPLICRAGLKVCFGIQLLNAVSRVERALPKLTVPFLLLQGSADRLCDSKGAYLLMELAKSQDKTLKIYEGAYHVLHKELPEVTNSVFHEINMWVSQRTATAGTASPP
Experiment: MAGL inhibitory activity, hydrolysis of 4-nitrophenylacetate to 4-nitrophenol (absorbance at 405 nm)
Format: biochemical
Conditions: 1 nM MAGL, 300 μM 4-nitrophenylacetate, 15 min preincubation at RT, slope of absorbance at 405 nm between 5 and 80 min
Description: Compounds were profiled for MAGL inhibitory activity by measuring the enzymatic activity of MAGL by following the hydrolysis of 4-nitorphenylacetate resulting in 4-nitrophenol, which absorbs at 405-412 nm (G. G. Muccioli, G. Labar, D. M. Lambert, Chem. Bio. Chem. 2008, 9, 2704-2710).
The assay was carried out in 384 well assay plates (black with clear bottom, non-binding surface treated, Corning Ref. 3655) in a total volume of 40 μL. Compound dilutions were made in 100% DMSO (VWR Chemicals 23500.297) in a polypropylene plate in 3-fold dilution steps to give a final concentration range in the assay from 25 μM to 1.7 nM. 1 μL compound dilutions (100% DMSO) were added to 19 μL MAGL (recombinant wild-type) in assay buffer (50 mM TRIS (GIBCO, 15567-027), 1 mM EDTA (Fluka, 03690-100 ml)). The plate was shaked for 1 min at 2000 rpm (Variomag Teleshake) and then incubated for 15 min at RT. To start the reaction, 20 μL 4-Nitrophenlyacetate (Sigma N-8130) in assay buffer with 6% EtOH was added. The final concentrations in the assay were 1 nM MAGL and 300 μM 4-Nitrophenylacetate. After shaking (1 m, 2000 rpm) and 5 min incubation at RT, the absorbance at 405 nm was measured for a first time (Molecular Devices, SpectraMax Paradigm). A second measurement was then done after incubation for 80 min at RT. From the two measurements, the slope was calculated by subtracting the first from the second measurement.

IC50: 34.7 nM
SMILES: O=C1COc2ccc(C(=O)N3CCC(Cc4ccc(C(F)(F)F)cc4)CC3)cc2N1 [Example 4, 6-[4-[[4-(trifluoromethyl)phenyl]methyl]piperidine-1-carbonyl]-4H-1,4-benzoxazin-3-one]
